Like-named read-outs stand apart in the source and are kept apart here. Each block holds one molecule with its values, some of them ahead of it.
Experiments:
Format in all cases: biochemical
[1] = target: T1, human CP4H1 (collagen prolyl 4-hydroxylase 1, alpha(I)2beta2 holoenzyme) (Homo sapiens, UniProt P13674); assay: inhibition of CP4H1 activity in vitro; conditions: 100 µM compound
[2] = target: T1, human CP4H1 (collagen prolyl 4-hydroxylase 1, alpha(I)2beta2 holoenzyme); assay: dose-response inhibition of CP4H1 hydroxylation activity
human PHD2 = human PHD2 (Homo sapiens, UniProt Q9GZT9); assay: inhibition of PHD2 activity in vitro
[3] = target: T1, human CP4H1 (collagen prolyl 4-hydroxylase 1, alpha(I)2beta2 holoenzyme); assay: Lineweaver-Burk analysis of CP4H1 activity
[4] = Fe(II) and AKG dependent reaction

T1 sequence (P13674 18-534): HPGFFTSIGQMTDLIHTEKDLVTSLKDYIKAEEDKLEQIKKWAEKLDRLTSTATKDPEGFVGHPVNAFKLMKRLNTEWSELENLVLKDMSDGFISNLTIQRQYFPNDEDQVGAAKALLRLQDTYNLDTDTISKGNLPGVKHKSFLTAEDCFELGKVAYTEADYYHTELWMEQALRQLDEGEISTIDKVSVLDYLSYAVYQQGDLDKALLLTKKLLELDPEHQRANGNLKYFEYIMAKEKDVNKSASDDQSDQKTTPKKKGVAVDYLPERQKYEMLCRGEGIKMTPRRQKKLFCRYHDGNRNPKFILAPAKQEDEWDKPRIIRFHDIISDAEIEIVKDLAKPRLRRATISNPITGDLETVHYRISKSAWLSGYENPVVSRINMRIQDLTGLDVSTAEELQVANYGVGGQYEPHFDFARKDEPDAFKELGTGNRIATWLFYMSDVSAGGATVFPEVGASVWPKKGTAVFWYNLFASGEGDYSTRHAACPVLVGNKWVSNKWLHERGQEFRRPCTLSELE
T1 sequence (P07237 18-508 partner): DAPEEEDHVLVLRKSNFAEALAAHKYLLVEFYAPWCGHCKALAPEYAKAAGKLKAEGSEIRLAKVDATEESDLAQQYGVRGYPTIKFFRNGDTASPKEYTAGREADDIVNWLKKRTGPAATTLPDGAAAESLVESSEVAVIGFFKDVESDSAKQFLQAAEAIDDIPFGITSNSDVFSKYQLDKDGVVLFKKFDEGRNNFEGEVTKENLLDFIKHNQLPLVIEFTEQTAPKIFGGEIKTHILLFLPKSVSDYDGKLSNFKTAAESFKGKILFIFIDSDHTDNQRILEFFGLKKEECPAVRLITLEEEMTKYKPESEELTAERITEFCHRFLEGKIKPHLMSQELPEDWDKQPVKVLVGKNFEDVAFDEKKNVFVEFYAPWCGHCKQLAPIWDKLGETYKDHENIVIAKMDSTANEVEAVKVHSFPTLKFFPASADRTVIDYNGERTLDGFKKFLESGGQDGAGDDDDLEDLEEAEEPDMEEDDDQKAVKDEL
Sequence of human PHD2 (Q9GZT9 2-426): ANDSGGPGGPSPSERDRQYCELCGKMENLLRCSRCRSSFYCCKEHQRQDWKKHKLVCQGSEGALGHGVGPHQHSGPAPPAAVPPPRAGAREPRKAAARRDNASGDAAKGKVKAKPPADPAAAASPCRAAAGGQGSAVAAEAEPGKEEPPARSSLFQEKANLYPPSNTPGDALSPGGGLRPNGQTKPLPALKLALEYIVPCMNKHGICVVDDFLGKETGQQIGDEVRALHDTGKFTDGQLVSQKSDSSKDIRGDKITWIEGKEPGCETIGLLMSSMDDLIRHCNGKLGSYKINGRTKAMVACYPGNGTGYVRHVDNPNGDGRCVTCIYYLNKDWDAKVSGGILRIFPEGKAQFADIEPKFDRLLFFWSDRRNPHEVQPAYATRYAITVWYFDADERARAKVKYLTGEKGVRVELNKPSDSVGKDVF

SMILES: CCOC(=O)c1ccc(-c2ncc(C(=O)OCC)s2)nc1 [diethyl pythiDC]
inhibition at 100 μM [1]: No inhibition of catalysis by CP4H1 or PHD2 was observed in vitro with these diethyl esters

IC50 [2, 4]: 2.6 ± 0.1 µM
SMILES: O=C(O)c1ccc(-c2ncc(C(=O)O)[nH]2)nc1 [pyimDC]

IC50 [2, 4]: 33 ± 8 µM
SMILES: O=C(O)c1ccc(-c2ncc(C(=O)O)o2)nc1 [pyoxDC]

IC50 [2]: 4 ± 0.2 µM
Ki [3]: 0.39 ± 0.04 µM
SMILES: O=C(O)c1ccc(-c2ncc(C(=O)O)s2)nc1 [pythiDC, 2 (5-carboxythiazol-2-yl)pyridine-5-carboxylic acid]
inhibition (human PHD2): inhibit human PHD2 only weakly (Figure S4), with pythiDC displaying especially low potency

— article PMC4798942 (ACS chemical biology, 2015)
